Our source for the IC50 and MIC values is ChEMBL document CHEMBL1149715, “Inhibition of the Mycobacterium tuberculosis enoyl acyl carrier protein reductase InhA by arylamides” (Bioorg Med Chem, 2007).

≈ marks a conversion by molar mass, not a printed value.

A word on the IC50: it is the concentration at which inhibition is half-maximal. The low end stands for greater potency in that assay, the high end for weaker potency in that assay. The MIC is the least concentration at which growth counts as inhibited. Low readings indicate greater potency, high ones weaker potency.

The target of one assay is T1, Enoyl-[acyl-carrier-protein] reductase [NADH] (Mycobacterium tuberculosis, UniProt P9WGR1).
T1 sequence (P9WGR1 whole entry): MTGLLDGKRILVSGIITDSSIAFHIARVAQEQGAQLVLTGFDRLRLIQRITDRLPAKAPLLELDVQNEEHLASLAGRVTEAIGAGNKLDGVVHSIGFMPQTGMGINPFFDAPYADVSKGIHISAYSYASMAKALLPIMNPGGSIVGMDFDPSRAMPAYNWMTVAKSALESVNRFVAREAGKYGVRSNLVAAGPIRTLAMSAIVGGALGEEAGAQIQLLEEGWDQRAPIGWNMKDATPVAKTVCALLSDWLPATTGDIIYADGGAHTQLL
Description: Inhibition of Mycobacterium tuberculosis InhA
`O=C(c1ccccc1)N1CCN(c2ccccc2)CC1` had an IC50 of 38.9 µM.
Still for that read-out and setting: to `O=C(c1ccccc1F)N1CCN(c2cccc(Cl)c2)CC1` belongs 13.9 µM.
On the same count and under the same terms, to `O=C(c1cccc(Cl)c1)N1CCC(Cc2ccccc2)CC1` belongs 7.74 µM; to `O=C(c1ccc(F)cc1)N1CCN(c2cccc(Cl)c2)CC1`, 9.74 µM.
The same measure, in the same setting: with `CC(C)(C)c1ccc(C(=O)N2CCN(c3cccc(Cl)c3)CC2)cc1` the figure was over 100 µM; with `Cc1cccc(C(=O)N2CCN(c3cccc(Cl)c3)CC2)c1`, 9.43 µM; with `Cc1ccc(N2CCN(C(=O)c3ccc(C(C)(C)C)cc3)CC2)cc1Cl`, over 100 µM.
The compound `Cc1cccc(C(=O)N2CCC(Cc3ccccc3)CC2)c1` gave an IC50 of 7.39 µM. In other words, the single-digit micromolar range.
With `O=C(c1ccccc1)N1CCN(C2c3ccccc3-c3ccccc32)CC1`, inhibition was half-maximal at 0.09 µM (IC50).
The same measure, in the same setting: to `O=C(c1ccccc1F)N1CCC(Cc2ccccc2)CC1` belongs 14.1 µM; to `O=C(c1ccc(Cl)c(Cl)c1)N1CCN(c2cccc(Cl)c2)CC1`, 6.05 µM; to `Cc1ccc(C(=O)N2CCN(C3c4ccccc4-c4ccccc43)CC2)cc1`, 0.4 µM.
Same read-out and setting: to `O=C(c1cccc(Cl)c1)N1CCN(c2cccc(Cl)c2)CC1` belongs 6.73 µM; to `O=C(c1ccccc1)N1CCN(Cc2ccccc2)CC1`, 31.5 µM; to `O=C(c1ccc2[nH]ccc2c1)N1CCN(C(c2ccc(F)cc2)c2ccc(F)cc2)CC1`, 1.04 µM.
Same read-out and setting: with `O=C(c1ccccc1)N1CCN(C(c2ccc(F)cc2)c2ccc(F)cc2)CC1` the figure was 2.04 µM; with `Cc1ccc(C(=O)N2CCC(Cc3ccccc3)CC2)cc1`, 5.16 µM; with `CC(C)c1ccc(C(=O)N2CCN(c3cccc(Cl)c3)CC2)cc1`, over 100 µM.
Take `Cc1ccc(C(=O)N2CCN(c3cccc(Cl)c3)CC2)cc1`: the IC50 came to 3.07 µM.
Same read-out and setting: with `CC(C)(C)c1ccc(C(=O)N2CCN(c3cccc(C(F)(F)F)c3)CC2)cc1` the figure was over 100 µM; with `Cc1ccc(C(=O)N2CCN(C(c3ccc(F)cc3)c3ccc(F)cc3)CC2)cc1`, 1.89 µM; with `Cc1ccc(C(=O)N2CCN(c3ccccc3)CC2)cc1`, 16.6 µM.
Turning to `Cc1ccc(C(=O)N2CCN(c3cccc(Cl)c3)CC2)cc1C`, the concentration for half-maximal inhibition (IC50) is 0.99 µM. Against the preceding compound, the IC50 is about 17-fold lower.
With `Cc1ccc(C(=O)N2CCN(c3cccc(C(F)(F)F)c3)CC2)cc1`, the IC50 was 6.26 µM. This IC50 lies about 6.3-fold higher than the previous one.
Same read-out and setting: to `O=C(c1ccc(Cl)c(Cl)c1)N1CCN(c2ccccc2)CC1` belongs 17.6 µM; to `Cc1ccc(C(=O)N2CCN(c3cccc(C(F)(F)F)c3)CC2)cc1C`, 1.85 µM.
Compound `Cc1cccc(C(=O)N2CCN(c3ccc([N+](=O)[O-])cc3)CC2)c1` returned an IC50 of 15.5 µM.

The next assay relates to Mycobacterium tuberculosis. Description: Antibacterial activity against Mycobacterium tuberculosis H37Rv by Alamar blue assay. The format is functional. For orientation: The colour change of resazurin is a common sign of viable cells or microbes.
With `O=C(c1ccc2[nH]ccc2c1)N1CCN(C(c2ccc(F)cc2)c2ccc(F)cc2)CC1`, the MIC came out at 62.5 µM (≈ 27 µg/mL).
The compound `O=C(c1ccccc1)N1CCN(C(c2ccc(F)cc2)c2ccc(F)cc2)CC1` displayed an MIC of 125 µM (≈ 49.1 µg/mL). Against the preceding compound, the MIC is about 2-fold higher.
Same read-out and setting: to `Cc1cccc(C(=O)N2CCN(c3ccc([N+](=O)[O-])cc3)CC2)c1` belongs 125 µM (≈ 40.7 µg/mL).
